# Experimental data reported in patent US7247727B2, “Azaindole thiazolinones” (Hoffmann-La Roche Inc., priority 2004, dated 2007).
# Columns and labels:
# CDK2/Cyclin E = CDK2/Cyclin E (Homo sapiens, UniProt P24941); assay: CDK2/Cyclin E kinase assay (procedure as for CDK1/Cyclin B); assay type: biochemical; settings: CDK2/Cyclin E complex, Rb protein substrate; Ki=IC50/(1+[S]/Km)
# Method: For the FlashPlate kinase assay, 96-well FlashPlates were coated with Rb protein at 10 μg/ml, using 100 μl per well. Plates were incubated at 4° C. overnight or at room temperature for 3 hours on a shaker. To control for nonspecific phosphorylation, one row of wells was coated with 100 μl/well coating buffer (20 mM HEPES, 0.2 M NaCl). Plates were then washed twice with wash buffer (0.01% Tween 20 in phosphate-buffered saline). Compounds to be tested (“test compounds”) were added to the wells at 5× final concentration. Reactions were initiated by immediate addition of 40 μl reaction mix (25 mM HEPES, 20 mM MgCl2, 0.002% Tween 20, 2 mM DTT, 1 μM ATP, 4 nM 33P-ATP) and a sufficient amount of enzyme to give counts that were at least 10-fold above background. Plates were incubated at room temperature on a shaker for 30 minutes. Plates were washed four times with the wash buffer, sealed, and counted on the TopCount scintillation counter (Packard Instrument Co., Downers Grove, Ill.]. The percent inhibition of Rb phosphorylation, which is a measure of the inhibition of CDK activity, was determined according to the following formula:
# [formula] where “test compound” refers to the average counts per minute of the test duplicates, “nonspecific” refers to the average counts per minute when no CDK1/Cyclin B, etc., was added, and “total” refers to the average counts per minute when no compound was added. The IC50 value is the concentration of test compound that reduces by 50% the protein-kinase induced incorporation of the radiolabel under the test conditions described. The value of the inhibitor constant Ki is calculated by the following: Ki=IC50/(1+[S]/Km), where [S] is the ATP concentration and Km is Michaelis constant.
# The Homogeneous Time Resolved Fluorescence (HTRF) kinase assay was carried out in 96-well polypropylene plates (BD Biosciences, Bedford, Mass.). Test compounds were first dissolved in DMSO, and then diluted in kinase assay buffer 1 (25 mM HEPES, pH7.0, 8 mM MgCl2, 1.5 mM DTT, and 162 μM ATP) with DMSO concentration at 15%. The CDK1/Cyclin B enzyme was diluted in kinase assay buffer 2 (25 mM HEPES, pH 7.0, 8 mM MgCl2, 0.003% Tween 20, 0.045% BSA, 1.5 mM DTT, and 0.675 μM Rb protein). To initiate the kinase reaction, 20 μL of compound solution was mixed with 40 μL of CDK1/Cyclin B solution in assay plates with final concentration of CDK1/Cyclin B and Rb at 0.1 μg/mL and […], respectively, and incubated at 37° C. for 30 min. […] At the completion of the incubation, 35 μL of reaction mixture was transferred to fresh 384-well black polystyrene plates (Corning Incorporated, Corning, N.Y.) and read on a fluorescent plate reader at excitation wavelength of 340 nm and emission wavelength of 665/615 nm. […]
# CDK1/Cyclin B = CDK1/Cyclin B (Homo sapiens, UniProt P06493); assay: CDK1/Cyclin B kinase assay (FlashPlate or HTRF); assay type: biochemical; settings: recombinant human CDK1/Cyclin B, Rb protein substrate; Ki=IC50/(1+[S]/Km)
# CDK1/Cyclin B, sequence (P06493 whole entry, the tested form may be a part): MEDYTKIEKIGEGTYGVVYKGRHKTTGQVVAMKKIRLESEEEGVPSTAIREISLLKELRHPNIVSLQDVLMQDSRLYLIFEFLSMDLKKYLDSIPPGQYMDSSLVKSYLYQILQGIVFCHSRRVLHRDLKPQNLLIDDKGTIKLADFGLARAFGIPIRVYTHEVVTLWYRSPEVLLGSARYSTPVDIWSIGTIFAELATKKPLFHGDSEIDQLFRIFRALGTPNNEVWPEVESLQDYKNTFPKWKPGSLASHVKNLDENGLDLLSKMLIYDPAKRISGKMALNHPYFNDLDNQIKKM
# CDK1/Cyclin B, sequence (P14635 whole entry partner, the tested form may be a part): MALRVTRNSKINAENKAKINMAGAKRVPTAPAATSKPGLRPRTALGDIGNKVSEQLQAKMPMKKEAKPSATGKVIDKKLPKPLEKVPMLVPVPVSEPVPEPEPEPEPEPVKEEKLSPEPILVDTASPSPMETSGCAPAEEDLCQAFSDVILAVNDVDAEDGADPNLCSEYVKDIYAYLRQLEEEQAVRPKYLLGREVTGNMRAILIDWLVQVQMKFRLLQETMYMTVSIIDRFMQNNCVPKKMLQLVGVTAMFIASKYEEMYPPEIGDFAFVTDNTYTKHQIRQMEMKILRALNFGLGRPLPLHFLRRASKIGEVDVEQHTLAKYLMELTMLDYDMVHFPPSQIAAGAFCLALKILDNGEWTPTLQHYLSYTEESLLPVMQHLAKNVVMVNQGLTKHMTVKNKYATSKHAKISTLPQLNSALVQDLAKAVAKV
# Method: To determine inhibition of CDK1 activity, either FlashPlate™ (NEN™-Life Science Products) assay or HTRF assay was performed. Both types of kinase assays were carried out using recombinant human CDK1/Cyclin B complex. GST-cyclinB (GST-cycB) and CDK1 cDNA clones in baculovirus vectors were provided by Dr. W. Harper at the Baylor College of Medicine, Houston, Tex. Proteins were co-expressed in High Five™ insect cells and the complex was purified on glutathione Sepharose resin (Pharmacia, Piscataway, N.J.) as previously described (Harper, J. W. et al. Cell 1993, 75, 805-816). A 6x-Histidine tagged truncated form of retinoblastoma (Rb) protein (amino acid 386-928) was used as the substrate for the CDK1/Cyclin B assay (the expression plasmid was provided by Dr. Veronica Sullivan, Department of Molecular Virology, Roche Research Centre, Welwyn Garden City, United Kingdom). The Rb protein is a natural substrate for phosphorylation by CDK1 (see Herwig and Strauss Eur. J. Biochem. Vol. 246 (1997) pp. 581-601 and the references cited therein). The expression of the 62Kd protein was under the control of an IPTG inducible promoter in an M15 E. coli strain. Cells were lysed by sonication and purification was carried out by binding lysates at pH 8.0 to a Ni-chelated agarose column pretreated with 1 mM imidazole. The resin was then washed several times with incrementally decreasing pH buffers to pH 6.0, and eluted with 500 mM imidazole. Eluted protein was dialyzed against 20 mM HEPES pH 7.5, 30% glycerol, 200 mM NaCl, and 1 mM DTT. Purified Rb fusion protein stocks were quantitated for protein concentration, aliquoted, and stored at −70° C.
# For the FlashPlate kinase assay, 96-well FlashPlates were coated with Rb protein at 10 μg/ml, using 100 μl per well. Plates were incubated at 4° C. overnight or at room temperature for 3 hours on a shaker. […] Plates were washed four times with the wash buffer, sealed, and counted on the TopCount scintillation counter (Packard Instrument Co., Downers Grove, Ill.]. The percent inhibition of Rb phosphorylation, which is a measure of the inhibition of CDK activity, was determined according to the following formula:
# [formula] where “test compound” refers to the average counts per minute of the test duplicates, “nonspecific” refers to the average counts per minute when no CDK1/Cyclin B, etc., was added, and “total” refers to the average counts per minute when no compound was added. […] The value of the inhibitor constant Ki is calculated by the following: Ki=IC50/(1+[S]/Km), where [S] is the ATP concentration and Km is Michaelis constant.
# The Homogeneous Time Resolved Fluorescence (HTRF) kinase assay was carried out in 96-well polypropylene plates (BD Biosciences, Bedford, Mass.). […]
Compound,melting point,Ki (CDK2/Cyclin E),Ki (CDK1/Cyclin B)
"O=C1N=C(N[C@@H](CO)c2ccccc2)S/C1=C\c1c[nH]c2ncccc12 [Example 3, 2-(2-Hydroxy-1-(R)-phenyl-ethylamino)-5-[1-(1H-pyrrolo[2,3-b]pyridin-3-yl)-meth-(Z)-ylidine]-thiazol-4-one]",317 to 319 °C,–,–
"Cc1ccsc1CNC1=NC(=O)/C(=C/c2c[nH]c3ncccc23)S1 [Example 10, 2-[(3-Methyl-thiophen-2-ylmethyl)-amino)-5-[1-(1H-pyrrolo[2,3-b]pyridin-3-yl)-meth-(Z)-ylidine]-thiazol-4-one]",–,18 nM,48 nM
"CC(=O)OC[C@H](NC1=NC(=O)/C(=C/c2c[nH]c3ncccc23)S1)c1ccccc1 [Example 7, Acetic Acid 2-[4-oxo-5-(1H-pyrrolo[2,3,b]pyridine-3-ylmethylene)-4,5-dihydro-thiazol-2-ylamino]-2-(R)-phenyl-ethyl ester]",243.7 to 246.8 °C,–,–
"O=C1N=C(NCc2cccs2)S/C1=C\c1c[nH]c2ncccc12 [Example 1, 5-[1-(1H-Pyrrolo[2,3-b]pyridin-3-yl)-meth-(Z)-ylidine]-2-[(thiophen-2-ylmethyl)-amino]-thiazol-4-one]",243 to 246 °C,–,–
"O=C1N=C(NC2C[C@@H]2c2ccccc2)S/C1=C\c1c[nH]c2ncccc12 (stereo partly drawn) [Example 5, 2-((1R,2S)-2-Phenyl-cyclopropylamino)-5-[1-(1H-pyrrolo[2,3-b]pyridin-3-yl)-meth-(Z)-ylidine]-thiazol-4-one]",308 to 310 °C,17 nM,10 nM
"O=C1N=C(NCc2ccc(F)c(Cl)c2)S/C1=C\c1c[nH]c2ncccc12 [Example 4, 2-(3-Chloro-4-fluorobenzylamino)-5-[1-(1H-pyrrolo[2,3-b]pyridin-3-yl)-meth-(Z)-ylidine]-thiazol-4-one]",318 to 320 °C,–,–
"CC(C)[C@H](CO)NC1=NC(=O)/C(=C/c2c[nH]c3ncccc23)S1 [Example 6, 2-(1-(R)-Hydroxymethyl-2-methylpropylamino)-5-[1-(1H-pyrrolo[2,3-b]pyridin-3-yl)-meth-(Z)-ylidine]-thiazol-4-one]",269 to 271 °C,–,–
"NC1=NC(=O)/C(=C/c2c[nH]c3ncccc23)S1 [Example 15, 2-Amino-5-[1-(1H-pyrrolo[2,3-b]pyridin-3-yl)-meth-(Z)-ylidene]-thiazol-4-one]",–,252 nM,830 nM
"COc1ccccc1NC1=NC(=O)/C(=C/c2c[nH]c3ncccc23)S1 [Example 18, 2-(2-Methoxy-phenylamino)-5-[1-(1H-pyrrolo[2,3-b]pyridin-3-yl)-meth-(Z)-ylidene]-thiazol-4-one]",–,187 nM,1150 nM
